One series has as its target T1, Aβ1–42 (Homo sapiens, UniProt P05067).
T1 construct: pre-treated Aβ1–42 (GL Biochem Ltd., Shanghai, China) was dissolved in DMSO; purchased GL Biochem Ltd., Shanghai, China
The series can be described thus: Inhibition of self-induced Aβ1–42 aggregation (ThT fluorescence). It counts as biochemical. The conditions noted are these: Aβ1–42 2.5 µM, compound 10 µM; mean ± SD of three experiments. Here is the method:
In order to investigate the inhibition of compounds on Aβ1–42 self-aggregation, a ThT-based fluorometric assay was performed. 1,1,1,3,3,3-hexafluoro-2-propanol (HFIP) pre-treated Aβ1–42 (GL Biochem Ltd., Shanghai, China) was dissolved in DMSO to make a 200 µM stock solution. The stock solution was centrifuged at the speed of 13,500 rpm for 10 min. The above supernatant was used for experiments. The tested compounds were dissolved in DMSO at concentrations of 0.8 mM. A screening assay for the tested compounds to inhibit A aggregation was performed by measuring ThT fluorescence emission. Compounds (2 µL) and 2 µL of 200 µM Aβ1–42 were added into 76 µL of phosphate-buffered saline (PBS at pH 7.4) in a 96-well plate. After incubation for 24 h at room temperature, 80 µL of 5 µM of ThT solution (in 50 mM of glycine-NaOH at pH 8.5) was added to the reaction solution. Fluorescence emission was measured at 490 nm with an excitation wavelength of 450 nm on a Tecan Spark multimode microplate reader. […] The fluorescence intensities were compared, and the % inhibition was calculated by the following equation: 100 − [(Fi − Fb)/(Fo − Fb) × 100], where Fi, Fo and Fb are the fluorescence intensities obtained for Aβ aggregation in the presence of inhibitors Aβ1–42 and ThT; in the presence of Aβ1–42 and THT but no inhibitors; and the blanks containing ThT only.

Another series can be described thus: in vitro. The conditions noted are these: human. On the procedure: Thus, to verify the hepatotoxicity of 1 and 12j, a 3-(4,5-dimethylthiazol-2-yl)-2,5-diphenyltetrazolium bromide (MTT) assay on the human hepatoma cell line (HepG2) was carried out.
The cytotoxicity of selected compounds was evaluated on HepG2 cells. Cells were inoculated into 96-well plates. After incubation for 24 h, the cells were treated with different concentrations of tested compounds for 24 h, and then were incubated with 10 μL of 3-(4,5-dimethylthiazol-2-yl)-2,5-diphenyltetrazolium bromide (MTT) at 37 °C for 2 h. The formazan dye product was measured by the absorbance at 490 nm on a Tecan Spark multimode microplate reader.

The test system of series [1] is AChE. The arrangement: method as in PMID 24547899. The conditions noted are these: read-out: AChE IC50 (reported value); cited from earlier work.
A further series deals with T2, Aβ1–42 and AChE (Electrophorus electricus, UniProt O42275).
T2 construct: HFIP pre-treated Aβ1–42 (GL Biochem Ltd., shanghai, China) was dissolved in DMSO; purchased GL Biochem Ltd. (Aβ1–42)
The series can be described thus: Inhibition of AChE-induced Aβ1–42 aggregation (ThT fluorescence). It counts as biochemical. The settings on record: Aβ1–42 2.5 µM, AChE 0.2 U/mL, compound 8 µM; mean ± SD of three experiments. On the procedure:
The stock solution was centrifuged at the speed of 13,500 rpm for 10 min. The above supernatant was used for experiments. […] Fluorescence emission was measured at 490 nm with an excitation wavelength of 450 nm on a Tecan Spark multimode microplate reader.

In the next series the target is T3, Electric eel AChE (Electrophorus electricus, UniProt O42275).
T3 construct: purchased Sigma-Aldrich (Steinheim, Germany)
Put plainly: biochemical. The settings on record: AChE from electric eel; mean ± SD from three separate experiments; read-out: IC50 EeAChE. On the procedure: (§1) The AChE and BChE inhibitory activities of compounds were determined by using a slightly modified Ellman’s method. Electric eel AChE, equine serum BChE, 5,5′-dithiobis(2-nitrobenzoic acid) (DTNB), phosphate buffer solution (PBS, pH 8.0), acetylthiocholine (ATC) iodide, and butyrylthiocholine (BUC) iodide were purchased from Sigma-Aldrich (Steinheim, Germany). […] Enzyme solutions were prepared at 2.0 U/mL in 2-mL aliquots. The assay medium consisted of 10 μL of enzyme, 40 μL of PBS, 20 μL of 0.01 M DTNB, and 10 μL of tested compound. Assayed solutions of tested compounds were pre-incubated with corresponding ChE for 5 min. The reaction was initiated by the addition of 20 μL of 0.01 M substrate (ATC or BUC). The activity was determined by measuring the increase in absorbance at 410 nm at 37 °C in 2-min intervals using Tecan Spark multimode microplate reader (Mannedorf, Switzerland). The percentage of inhibition (I) was calculated from the measured data as follows: I = (Ac − Ai)/Ac × 100%, where Ai and Ac represent the change in the absorbance in the presence of an inhibitor and without an inhibitor, respectively.

The target of the next series is T4, equine serum BChE (Equus caballus, UniProt P81908).
T4 construct: purchased Sigma-Aldrich (Steinheim, Germany); host or cells: equine serum
Put plainly: biochemical. The settings on record: BChE from equine serum; mean ± SD from three separate experiments; read-out: IC50 eqBChE. Here is the method: as §1

The next series has as its target T5, BChE (Equus caballus, UniProt P81908).
T5 construct: purchased Sigma-Aldrich (Steinheim, Germany); host or cells: equine serum
Put plainly: Kinetic study of BChE inhibition (Lineweaver-Burk, Ellman's method). It counts as biochemical. On the procedure: (§2) Herein, compound 12j was selected as a representative prototype for kinetic assay to obtain information on the mode of action and binding site of this series of analogues. […].
(§3) The equilibrium constant for binding with the free enzyme (Ki) was obtained from the slope against inhibitor concentration. […].
(§4) Kinetic studies of inhibition on AChE and BChE were performed by using Ellman’s method as described above. […]
(§5) (B) Secondary plot of slopes versus 12j concentrations.

In series [2] the target is T6, AChE (Electrophorus electricus, UniProt O42275).
T6 construct: purchased Sigma-Aldrich (Steinheim, Germany)
Put plainly: Kinetic study of AChE inhibition (Lineweaver-Burk, Ellman's method). In kind it is biochemical. Here is the method:
as §2, §3, §4, §5
(In general: In Ellman's method for cholinesterases, released thiocholine reacts with DTNB.)

[3] abbreviates: estimated from secondary plot of slopes versus inhibitor concentration.

Some results are limits rather than exact numbers.

As a reminder, the IC50 is the concentration at which inhibition is half-maximal. For orientation: Ki means the dissociation constant of the complex between target and ligand, obtained from inhibition or displacement.

T6 sequence (O42275 24-633): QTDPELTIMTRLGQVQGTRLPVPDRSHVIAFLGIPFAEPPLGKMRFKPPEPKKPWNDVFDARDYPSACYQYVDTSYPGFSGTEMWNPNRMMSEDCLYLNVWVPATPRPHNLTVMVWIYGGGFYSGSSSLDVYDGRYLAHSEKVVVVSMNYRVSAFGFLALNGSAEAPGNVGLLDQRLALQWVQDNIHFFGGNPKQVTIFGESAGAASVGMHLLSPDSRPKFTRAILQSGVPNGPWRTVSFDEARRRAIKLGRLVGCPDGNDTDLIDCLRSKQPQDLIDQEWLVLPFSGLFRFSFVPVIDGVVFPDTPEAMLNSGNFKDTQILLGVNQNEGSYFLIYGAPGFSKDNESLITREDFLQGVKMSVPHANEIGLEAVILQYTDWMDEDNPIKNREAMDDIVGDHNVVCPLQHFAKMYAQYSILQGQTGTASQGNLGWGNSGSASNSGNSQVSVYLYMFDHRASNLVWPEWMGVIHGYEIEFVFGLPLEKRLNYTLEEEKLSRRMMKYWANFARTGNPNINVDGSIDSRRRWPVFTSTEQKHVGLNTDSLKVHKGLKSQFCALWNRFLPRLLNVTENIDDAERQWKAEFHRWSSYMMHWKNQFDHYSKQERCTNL
T3 sequence (O42275 24-633): as above
T2 sequence (O42275 24-633): as above
T1 sequence (P05067 672-713 limits assumed): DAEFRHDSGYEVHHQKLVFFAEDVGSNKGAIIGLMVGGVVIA
T4 sequence (P81908 whole entry): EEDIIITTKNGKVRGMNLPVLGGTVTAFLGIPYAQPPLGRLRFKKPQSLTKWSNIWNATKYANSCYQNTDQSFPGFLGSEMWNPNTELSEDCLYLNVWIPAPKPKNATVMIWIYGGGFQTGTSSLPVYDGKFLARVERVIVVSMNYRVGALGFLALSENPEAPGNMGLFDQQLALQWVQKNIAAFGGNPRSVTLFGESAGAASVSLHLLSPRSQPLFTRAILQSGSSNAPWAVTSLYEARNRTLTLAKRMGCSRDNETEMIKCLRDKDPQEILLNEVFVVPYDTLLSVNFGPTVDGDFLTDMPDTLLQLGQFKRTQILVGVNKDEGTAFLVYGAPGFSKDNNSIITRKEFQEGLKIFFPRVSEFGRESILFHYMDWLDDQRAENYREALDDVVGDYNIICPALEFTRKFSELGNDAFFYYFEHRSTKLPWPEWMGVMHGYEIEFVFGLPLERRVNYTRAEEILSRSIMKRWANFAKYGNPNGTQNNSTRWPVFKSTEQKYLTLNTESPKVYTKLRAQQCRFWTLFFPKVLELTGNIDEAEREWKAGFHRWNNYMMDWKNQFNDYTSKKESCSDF
T5 sequence (P81908 whole entry): as above

For the molecule `COc1c(Br)cc(CC(=O)NCCCCC[N+](C)(C)C)cc1Br` [Compound 1, Pulmonarin B], at Aβ1–42, the “Inhibition of Aβ Aggregation (%) Self-Induced” value is on record as 29.78 ± 1.45%. The molecule further showed a half-maximal inhibitory concentration (IC50) at 24 h in “in vitro” of over 80 µM. The IC50 is 36 µM with AChE [1], 37 ± 2.11 µM on Electric eel AChE and 30.7 ± 1.44 µM at equine serum BChE. Also, the “Inhibition of Aβ Aggregation (%) AChE-Induced” value on Aβ1–42 and AChE was 27.60 ± 1.96%.
Regarding `O=C(Cc1cc(Br)ccc1F)NCCCCCCCNc1c2c(nc3ccccc13)CCCC2` [Compound 12j, 2-(5-Bromo-2-fluorophenyl)-N-(7-((1,2,3,4-tetrahydroacridin-9-yl)amino)heptyl)acetamide], the “Inhibition of Aβ Aggregation (%) Self-Induced” value at Aβ1–42 is 32.37 ± 0.62%. For the same molecule, the 50% inhibitory concentration (IC50) at 24 h in “in vitro” is over 80 µM. Besides, the “Type of BChE inhibition” value at BChE (Lineweaver-Burk plots) was “linear mixed-type”. Besides, the Ki at BChE (setting [3]) was 0.00991 µM; on AChE [2] (setting [3]), 0.0975 µM. Further, the “Type of AChE inhibition” value on AChE [2] (Lineweaver-Burk plots) was “linear mixed-type”. Besides, the “Inhibition of Aβ Aggregation (%) AChE-Induced” value on Aβ1–42 and AChE amounted to 47.73 ± 4.35%. The 50% inhibitory concentration (IC50) on Electric eel AChE worked out at 0.182 ± 0.006 µM; on equine serum BChE it was 0.064 ± 0.006 µM.

Values taken from PMC6164518 (Marine Drugs, 2018).
